Experimental data reported in ChEMBL document CHEMBL3352762 (J Med Chem, 2014).
The source made the active and inactive calls. No cut-off for these calls is given here.

Assays:
Urotensin-2 receptor = biological target: T1, Urotensin-2 receptor (Homo sapiens, UniProt Q9UKP6); test: Displacement of [125I]urotensin-2 from human recombinant UT receptor expressed in CHO-K1 cells by scintillation counting method; assay type: cell-based
T1 sequence (Q9UKP6 whole entry): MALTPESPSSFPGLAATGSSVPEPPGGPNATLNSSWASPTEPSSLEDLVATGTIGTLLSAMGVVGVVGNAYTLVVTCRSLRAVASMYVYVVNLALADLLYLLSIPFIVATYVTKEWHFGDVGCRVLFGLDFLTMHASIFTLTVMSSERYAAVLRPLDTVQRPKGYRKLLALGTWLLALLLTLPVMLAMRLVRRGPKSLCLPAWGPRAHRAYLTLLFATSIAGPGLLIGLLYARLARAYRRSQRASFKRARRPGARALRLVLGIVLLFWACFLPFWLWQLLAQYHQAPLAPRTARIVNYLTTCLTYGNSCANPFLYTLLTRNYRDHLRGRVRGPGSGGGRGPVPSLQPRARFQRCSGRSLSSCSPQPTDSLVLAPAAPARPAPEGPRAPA

[1] = biological target: T2, Urotensin-2 receptor (Rattus norvegicus) (UniProt P49684); test: Agonist activity at UT receptor in rat aorta assessed as contraction; assay type: tissue-based
T2 sequence (whole entry): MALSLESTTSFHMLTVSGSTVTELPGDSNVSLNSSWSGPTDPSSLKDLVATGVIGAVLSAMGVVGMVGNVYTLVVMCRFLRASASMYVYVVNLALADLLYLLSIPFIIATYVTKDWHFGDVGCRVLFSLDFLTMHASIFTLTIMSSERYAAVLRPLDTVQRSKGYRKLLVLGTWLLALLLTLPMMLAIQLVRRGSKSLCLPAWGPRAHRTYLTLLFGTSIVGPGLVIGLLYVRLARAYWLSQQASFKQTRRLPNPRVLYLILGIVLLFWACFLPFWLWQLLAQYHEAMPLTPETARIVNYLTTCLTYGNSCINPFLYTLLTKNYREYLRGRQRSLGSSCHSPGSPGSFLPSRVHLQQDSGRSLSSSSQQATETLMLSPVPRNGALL

[2] = biological target: T2, Urotensin-2 receptor (Rattus norvegicus); test: Agonist activity at UT receptor in rat aorta assessed as contraction relative to urotensin-2; assay type: tissue-based
[3] = biological target: T2, Urotensin-2 receptor (Rattus norvegicus); test: Competitive antagonist activity at UT receptor in rat aorta assessed as effect on urotensin-2-induced contraction; assay type: tissue-based
[4] = biological target: T3, Urotensin-2 receptor (Homo sapiens) (UniProt Q9UKP6); test: Partial agonist activity at human recombinant UT receptor expressed in CHO-K1 cells assessed as stimulation of intracellular calcium mobilization by FLIPR assay; assay type: functional, cell-based
T3 sequence (whole entry): T1 sequence (Q9UKP6 whole entry)

[5] = biological target: T3, Urotensin-2 receptor (Homo sapiens); test: Partial agonist activity at human recombinant UT receptor expressed in CHO-K1 cells assessed as stimulation of intracellular calcium mobilization at 1 uM by FLIPR assay relative to urotensin-2; assay type: functional, cell-based
[6] = biological target: T3, Urotensin-2 receptor (Homo sapiens); test: Partial agonist activity at human recombinant UT receptor expressed in CHO-K1 cells assessed as stimulation of intracellular calcium mobilization at 10 uM by FLIPR assay relative to urotensin-2; assay type: functional, cell-based
[7] = Stability in 25% fetal calf serum assessed as parent compound remaining at 80 uM at 37 degC after 16 hrs by RP-HPLC-UV based detection assay; assay type: ADME, Bos taurus; conditions: cattle, read-out: Stability
[8] = Stability in 25% fetal calf serum assessed as parent compound remaining at 80 uM at 37 degC after 36 hrs by RP-HPLC-UV based detection assay; assay type: ADME, Bos taurus; conditions: cattle, read-out: Stability

Ki (Urotensin-2 receptor): 12 nM
pEC50 [1]: inactive
Emax [2]: 0%
pKb [3]: 8.15
Activity [4]: Active
Efficacy [5]: 61.4%
Efficacy [6]: 61.7%
remaining at 16 h, 80 µM [7]: > 70%
remaining at 36 h, 80 µM [8]: > 50%
Structure (SMILES): CC(C)[C@H](NC(=O)[C@@H]1CSSC(C)(C)[C@H](NC(=O)[C@@H](N)CC(=O)O)C(=O)N[C@@H](Cc2ccccc2)C(=O)N[C@H](Cc2c[nH]c3ccccc23)C(=O)N[C@@H](CCCN)C(=O)N[C@@H](Cc2ccc(C#N)cc2)C(=O)N1)C(=O)O
